Measured values from article PMC11094793, “Discovery of LLC0424 as a Potent and Selective in Vivo NSD2 PROTAC Degrader” (Journal of Medicinal Chemistry, 2024).
Like-named read-outs stand apart in the source and are kept apart here.

Biological target: T1, NSD2 (Homo sapiens, UniProt O96028)
T1 sequence (O96028 1-1365): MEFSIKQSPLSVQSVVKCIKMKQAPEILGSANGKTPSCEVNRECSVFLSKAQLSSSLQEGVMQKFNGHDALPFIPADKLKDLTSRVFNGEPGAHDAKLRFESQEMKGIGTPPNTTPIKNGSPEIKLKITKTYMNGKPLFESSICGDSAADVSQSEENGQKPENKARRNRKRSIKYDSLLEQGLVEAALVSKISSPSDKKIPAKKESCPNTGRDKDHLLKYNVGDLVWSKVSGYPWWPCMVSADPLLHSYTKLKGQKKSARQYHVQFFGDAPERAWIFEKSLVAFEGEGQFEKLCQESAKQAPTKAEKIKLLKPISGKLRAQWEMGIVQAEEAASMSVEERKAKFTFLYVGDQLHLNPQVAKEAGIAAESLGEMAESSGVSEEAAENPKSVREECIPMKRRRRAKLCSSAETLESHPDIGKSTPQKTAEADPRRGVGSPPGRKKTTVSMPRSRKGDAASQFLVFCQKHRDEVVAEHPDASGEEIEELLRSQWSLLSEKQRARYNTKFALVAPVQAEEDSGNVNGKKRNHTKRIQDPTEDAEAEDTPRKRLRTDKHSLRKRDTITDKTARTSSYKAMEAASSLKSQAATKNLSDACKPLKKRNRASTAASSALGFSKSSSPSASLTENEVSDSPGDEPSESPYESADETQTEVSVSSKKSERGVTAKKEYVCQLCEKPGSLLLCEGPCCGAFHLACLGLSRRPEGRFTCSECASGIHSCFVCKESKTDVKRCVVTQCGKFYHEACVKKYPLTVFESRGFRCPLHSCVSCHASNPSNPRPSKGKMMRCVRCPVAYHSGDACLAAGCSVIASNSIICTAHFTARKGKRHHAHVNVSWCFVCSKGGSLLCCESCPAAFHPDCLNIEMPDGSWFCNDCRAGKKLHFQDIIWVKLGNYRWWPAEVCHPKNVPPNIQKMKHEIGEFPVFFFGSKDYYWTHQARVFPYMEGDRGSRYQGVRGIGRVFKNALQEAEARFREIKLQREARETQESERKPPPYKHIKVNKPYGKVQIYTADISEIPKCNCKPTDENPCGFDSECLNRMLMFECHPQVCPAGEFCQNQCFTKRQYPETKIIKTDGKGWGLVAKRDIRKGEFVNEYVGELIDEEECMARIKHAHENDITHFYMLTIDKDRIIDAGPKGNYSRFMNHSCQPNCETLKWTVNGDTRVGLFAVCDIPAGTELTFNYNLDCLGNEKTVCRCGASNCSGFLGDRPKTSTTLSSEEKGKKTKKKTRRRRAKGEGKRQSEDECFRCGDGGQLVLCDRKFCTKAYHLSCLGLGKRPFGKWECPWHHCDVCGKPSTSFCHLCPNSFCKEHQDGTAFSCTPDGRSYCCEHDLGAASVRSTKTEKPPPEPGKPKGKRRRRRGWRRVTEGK
Assay: Compound screening: NSD2 degradation by immunoblotting in VCaP cells
Settings: VCaP, 24 h

[1] = read-out: 2.0 μM Degradation % (VCaP)

Method: After treatment, the cultured cells were collected and rinsed with phosphate-buffered saline (PBS) in room temperature. The cells were treated with RIPA buffers (ThermoFisher Scientific) supplemented with Halt Protease and Phosphatase Inhibitor Cocktail (ThermoFisher Scientific). After sonication and centrifugation, the total amount of protein in the cell lysates was measured by Pierce Bovine Serum Albumin Standard Pre-Diluted Set (ThermoFisher Scientific). […] After incubated with HRP-conjugated secondary antibodies, the membranes were developed with ECL Prime Western Blotting Detection Reagent (cytiva) and imaged on Odyssey Fc Imager (LiCOR Biosciences).
Western blot was then performed as previously described to detect NSD2 degradation.

O=C1CCC(N2C(=O)c3cccc(NCCCCCCNC(=O)c4ccc(NC(=O)c5ccc(CN(C(=O)c6ccc7c(c6)OCC(=O)N7)C6CC6)cc5)cc4)c3C2=O)C(=O)N1 (stereo not shown) [10c, N-Cyclopropyl-N-(4-((4-((6-((2-(2,6-dioxopiperidin-3-yl)-1,3-dioxoisoindolin-4-yl)amino)hexyl)carbamoyl)phenyl)carbamoyl)benzyl)-3-oxo-3,4-dihydro-2H-benzo[b][1,4]oxazine-7-carboxamide]
Dmax at 2 µM [1]: 25% | Dmax at 2 µM (read-out: % Degradation): 25%

O=C1CCC(N2C(=O)c3cccc(NCCCCCCCCNC(=O)c4ccc(NC(=O)c5ccc(CN(C(=O)c6ccc7c(c6)OCC(=O)N7)C6CC6)cc5)cc4)c3C2=O)C(=O)N1 (stereo not shown) [10d, N-Cyclopropyl-N-(4-((4-((8-((2-(2,6-dioxopiperidin-3-yl)-1,3-dioxoisoindolin-4-yl)amino)octyl)carbamoyl)phenyl)carbamoyl)benzyl)-3-oxo-3,4-dihydro-2H-benzo[b][1,4]oxazine-7-carboxamide]
Dmax at 2 µM [1]: 13% | Dmax at 2 µM (read-out: % Degradation): 13%

O=C1CCC(N2C(=O)c3ccc(NCCNC(=O)c4ccc(NC(=O)c5ccc(CN(C(=O)c6ccc7c(c6)OCC(=O)N7)C6CC6)cc5)cc4)cc3C2=O)C(=O)N1 (stereo not shown) [10e, N-cyclopropyl-N-(4-((4-((2-((2-(2,6-dioxopiperidin-3-yl)-1,3-dioxoisoindolin-5-yl)amino)ethyl)carbamoyl)phenyl)carbamoyl)benzyl)-3-oxo-3,4-dihydro-2H-benzo[b][1,4]oxazine-7-carboxamide]
Dmax at 2 µM [1]: 70% | Dmax at 2 µM (read-out: % Degradation): 70%

O=C1CCC(N2C(=O)c3ccc(NCCCCNC(=O)c4ccc(NC(=O)c5ccc(CN(C(=O)c6ccc7c(c6)OCC(=O)N7)C6CC6)cc5)cc4)cc3C2=O)C(=O)N1 (stereo not shown) [10g, N-Cyclopropyl-N-(4-((4-((4-((2-(2,6-dioxopiperidin-3-yl)-1,3-dioxoisoindolin-5-yl)amino)butyl)carbamoyl)phenyl)carbamoyl)benzyl)-3-oxo-3,4-dihydro-2H-benzo[b][1,4]oxazine-7-carboxamide]
Dmax at 2 µM [1]: 92% | Dmax at 2 µM (read-out: % Degradation): 92%

O=C1CCC(N2C(=O)c3ccc(NCCCCCNC(=O)c4ccc(NC(=O)c5ccc(CN(C(=O)c6ccc7c(c6)OCC(=O)N7)C6CC6)cc5)cc4)cc3C2=O)C(=O)N1 (stereo not shown) [10h, N-Cyclopropyl-N-(4-((4-((5-((2-(2,6-dioxopiperidin-3-yl)-1,3-dioxoisoindolin-5-yl)amino)pentyl)carbamoyl)phenyl)carbamoyl)benzyl)-3-oxo-3,4-dihydro-2H-benzo[b][1,4]oxazine-7-carboxamide]
Dmax at 2 µM [1]: 80% | Dmax at 2 µM (read-out: % Degradation): 80%

O=C1CCC(N2C(=O)c3ccc(NCCCCCCNC(=O)c4ccc(NC(=O)c5ccc(CN(C(=O)c6ccc7c(c6)OCC(=O)N7)C6CC6)cc5)cc4)cc3C2=O)C(=O)N1 (stereo not shown) [10i, N-Cyclopropyl-N-(4-((4-((6-((2-(2,6-dioxopiperidin-3-yl)-1,3-dioxoisoindolin-5-yl)amino)hexyl)carbamoyl)phenyl)carbamoyl)benzyl)-3-oxo-3,4-dihydro-2H-benzo[b][1,4]oxazine-7-carboxamide]
Dmax at 2 µM [1]: 83% | Dmax at 2 µM (read-out: % Degradation): 83%

O=C1CCC(N2C(=O)c3ccc(NCCCCCCCCNC(=O)c4ccc(NC(=O)c5ccc(CN(C(=O)c6ccc7c(c6)OCC(=O)N7)C6CC6)cc5)cc4)cc3C2=O)C(=O)N1 (stereo not shown) [10j, N-Cyclopropyl-N-(4-((4-((8-((2-(2,6-dioxopiperidin-3-yl)-1,3-dioxoisoindolin-5-yl)amino)octyl)carbamoyl)phenyl)carbamoyl)benzyl)-3-oxo-3,4-dihydro-2H-benzo[b][1,4]oxazine-7-carboxamide]
Dmax at 2 µM [1]: 90% | Dmax at 2 µM (read-out: % Degradation): 90%

O=C1CCC(N2C(=O)c3ccc(N4CCN(C(=O)c5ccc(NC(=O)c6ccc(CN(C(=O)c7ccc8c(c7)OCC(=O)N8)C7CC7)cc6)cc5)CC4)cc3C2=O)C(=O)N1 (stereo not shown) [10m, N-Cyclopropyl-N-(4-((4-(4-(2-(2,6-dioxopiperidin-3-yl)-1,3-dioxoisoindolin-5-yl)piperazine-1-carbonyl)phenyl)carbamoyl)benzyl)-3-oxo-3,4-dihydro-2H-benzo[b][1,4]oxazine-7-carboxamide]
Dmax at 2 µM [1]: 41% | Dmax at 2 µM (read-out: % Degradation): 41%
